From PubChem BioAssay (NCI)
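Cells were grown in 96-well plates and exposed to each compound for 48 hours at five concentrations; endpoints were interpolated linearly between bracketing concentrations, or set to the highest concentration if not reached. TGI: total growth inhibition.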

Assays:
Test in all cases: NCI anticancer screen, dose series, 48 h
SK-MEL-5 melanoma = test system: SK-MEL-5 melanoma
SK-MEL-28 melanoma = test system: SK-MEL-28 melanoma
SK-OV-3 ovarian = test system: SK-OV-3 ovarian
OVCAR-8 ovarian = test system: OVCAR-8 ovarian
RPMI-8226 leukemia = test system: RPMI-8226 leukemia
MOLT-4 leukemia = test system: MOLT-4 leukemia
U251 CNS = test system: U251 CNS
CAKI-1 renal = test system: CAKI-1 renal
SW-620 colon = test system: SW-620 colon
HOP-62 NSCLC = test system: HOP-62 NSCLC
RXF 393 renal = test system: RXF 393 renal
TK-10 renal = test system: TK-10 renal
HS 578T breast = test system: HS 578T breast
MDA-MB-231 breast = test system: MDA-MB-231 breast

SMILES	TGI (SK-MEL-5 melanoma) [µM]	TGI (SK-MEL-28 melanoma) [µM]	TGI (SK-OV-3 ovarian) [µM]	TGI (OVCAR-8 ovarian) [µM]	TGI (RPMI-8226 leukemia) [µM]	TGI (MOLT-4 leukemia) [µM]	TGI (U251 CNS) [µM]	TGI (CAKI-1 renal) [µM]	TGI (SW-620 colon) [µM]	TGI (HOP-62 NSCLC) [µM]	TGI (RXF 393 renal) [µM]	TGI (TK-10 renal) [µM]	TGI (HS 578T breast) [µM]	TGI (MDA-MB-231 breast) [µM]
CC1CC(=O)C(CC(=O)O)C1C(C(=O)C(=O)Nc1c(C#N)cccc1[N+](=O)[O-])[N+](=O)[O-] (configuration not stated)	> 100	> 100	> 100	> 100	> 100	> 100	> 100	> 100	> 100	> 100	> 100	> 100		
O=C(O)C(Cc1cnc[nH]1)N=Cc1nc(-c2ccccc2)oc1O (configuration not stated)	> 100	> 100	> 100	> 100	> 100	> 100	> 100		> 100	> 100	> 100	> 100		
COc1cc(CNC(=O)[C@H](Cc2ccc(O)cn2)NC(C)=O)cc(OC)c1	> 100	> 100	> 100		> 100	> 100	> 100	> 100	> 100	> 100	> 100	> 100	> 100	
Nc1ccc(C(=O)NN2C(=O)C(Cl)C2c2ccc([N+](=O)[O-])cc2)cc1 (configuration not stated)	28.8	20.1	29.1	56	42.8	9.8	5.28	36.1	26.2	23.2		33.5		
O=C1N(CN2CCOCC2)CN(CN2CCOCC2)C(=O)N1Cc1ccccc1	44.2	34.8	> 100	43.4	60.3	39.3	56.8	92.8	54.9	> 100	35.7	> 100		69.6
C[C@@H]1OC(=O)C[C@H]2CC(=O)N(CCC3CN(S(=O)(=O)C(F)(F)F)c4ccc(Cc5ccc6c(c5)C(CCN5C[C@H]7[C@@H](CC(=O)O[C@H]7C)CC5=O)CN6S(=O)(=O)C(F)(F)F)cc43)C[C@@H]21 (some centres not stated)	> 100	> 100	> 100	> 100	> 100	> 100	> 100	> 100	> 100	> 100	> 100	> 100		> 100
O=c1[nH]c(=O)n(C2CC(O)C(CO)O2)cc1C#Cc1cc(C(F)(F)F)cc(C(F)(F)F)c1 (configuration not stated)	> 55.6	> 100	> 100	> 100	> 100	> 100	> 100	> 100	> 100	> 100	39	> 100		
COc1cc(S(=O)(=O)Nc2ccc(-c3csc(N4C(=O)C(C)SC4c4ccccc4O)n3)cc2)ccc1Cl (configuration not stated)	> 100	55.6	> 100	> 100	> 100	> 100		> 100	> 100	> 100			90.4	
O=C(Nc1ccccc1)Nn1c(-c2cccs2)nc2ccc(I)cc2c1=O	40.7	53.6	71.2	> 100	51.8		64.8	53.3	> 100	> 100	> 100	60.6		
CN(C)CCCNC(=O)c1cc(NC(=O)c2cc(NC(=O)[C@H]3C[C@@H]3C(=O)Nc3cc(C(=O)Nc4cc(C(=O)NCCCN(C)C)n(C)c4)n(C)c3)cn2C)cn1C	> 100			> 100	> 100	> 100	> 100	> 100	> 100	> 100				> 100
O=C1SC(c2ccccc2)(c2ccccc2)c2ccccc21	> 100	> 100	> 100	> 100	> 100	> 100	> 100	> 100	> 100	> 100	> 100	> 100		
COP(=O)(OC)C(O)/C=C/c1ccco1 (configuration not stated)	> 100	> 100	> 100	> 100	> 100	> 100	> 100	> 100	> 100	> 100	> 100		> 100	
C=CCOC(=O)CCCCCCCCCCCCCCCOC(=O)c1c(CCC[C@@H](C)O[Si](C)(C)C(C)(C)C)nc(=O)n2c1CC[C@H]2CC1(CC/C=C\[C@H](CC)O[Si](C(C)C)(C(C)C)C(C)C)OCCO1	46.8	> 100	> 100		> 100		31.8	> 100		> 100		> 100		54.3
